Data reported in US20240327423A1, “A SERIES OF PYRROLE DERIVATIVES AND THEIR PREPARATION METHOD AND THERAPEUTIC USE” (SHENZHEN SUNGENING BIO-MEDICAL CO., LTD, priority 2020, published 2024).
In brackets after ≈: the same amount, converted by molar mass. Several values for one entry are separate records, joined by “and”; a condition that tells them apart may be missing. Equal entries are not always repeated. Where two headings read alike, the source gives them in different places.

Columns and labels:
[1] = test system: Aspergillus fumigatus (ATCC MYA-4609/AF293/CBS 101355); assay: Measurement of minimum inhibitory concentration (MIC), AF293; type: cell-based; conditions: CBS101355; Aspergillus fumigatus AF293, 35° C., 48 hours, RPMI1640; read-out: AF293: MIC
In short: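 Broth microdilution in RPMI1640 buffered with 0.165M MOPS, pH 7.0, spore inoculum 0.2-2.5×10^4 spores/mL from SDA cultures. Twofold compound dilutions in DMSO, 1% of final volume. Incubated 35 °C for 48 h; growth scored visually with magnifier and OD530 read.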

[2] = test system: Aspergillus flavus (ATCC MYA-1004); assay: Measurement of minimum inhibitory concentration (MIC), ATCC MYA-1004; type: cell-based; conditions: Aspergillus flavus ATCC MYA-1004, 35° C., 48 hours
Protocol: (§1) New streaks are made with glycerol stock solution of the strains of Aspergillus fumigatus (ATCC MYA-4609/AF 293/CBS 101355) on Sabouraud's dextrose agar (SDA), incubate at 35° C. and a humidity of 40-70% for 72 hours. Other strains are processed as the same as AF293.
(§2) RPMI1640: one packet of RPMI1640 powder is dissolved in 1 L purified water and mixed well, add 0.165M MOPS, adjust the pH to 7.0, sterilize by filtration with 0.22 um membrane, and store at 4° C. for no more than 3 months.
(§3) Physiological saline: weigh 9 g of sodium chloride powder and dissolve in 1 L of purified water, and mixed well. Sterilize at 121° C. for 30 min, store at room temperature (RT) for no more than 1 week.
(§4) Dissolve the test compound and stock solution of one control compound with DMSO and obtain solutions at a concentration of 12.8 mg/mL
(§5) The maximum concentration of each compound is 0.8 mg/mL (e.g., 150 μL of dimethyl sulfoxide+10 uL of 12.8 mg/mL compound/control). Column 1 is filled with 40 μL of compound and columns 2 to 11 with 20 μL of dimethyl sulfoxide. Transfer 20 μL of compound from column 1 to column 2 to dilute the concentration. Repeat the above steps up to column 11 to give 2× serial dilutions.
(§6) 2 μL of the above 2× serial dilutions are injected into each hole of the corresponding test plate using a multichannel pipette.
(§7) Drop 5 ml of saline on the Aspergillus fumigatus SDA plate. The spores were carefully wiped off from the surface of the plate with an L-shaped coating rod. Then the suspension is transferred into a sterile tube. After shaking, let the tube stand for 5 to 10 minutes. Count the number of spores in the upper suspension with a hemocytometer and check the purity. Adjust the inoculum concentration to 0.2-2.5×10^4 spores/mL.
(§8) Inject 198 μL of diluted inoculum into each holes of the corresponding test plate using a multichannel pipette.
(§9) Incubate at 35° C. for 48 hours.
(§10) To facilitate scoring of the presence or absence of growth on the wall, a magnifying glass is used. The tested 96-well microplates were photographed and the optical density at 530 nm is read with an enzyme marker (Tecan Spark).

[3] = Liver microsomal stability test, mouse; type: in vitro ADME; conditions: Mouse liver microsomes; for CLint scaled / half-life: 0.5 mg/mL protein, 37° C., NADPH
Protocol: (§11) • 1: Add 10 μL of working solutions of test product or reference product and 80 μL of microsomal working solution (liver microsomal protein concentration of 0.5 mg/mL) to wells of TO, T5, T10, T20, T30, T60, and NCF60, and only microsomal working solution is added to the Blank60 wells. Then the samples of Blank60, T10, T20, T30 and T60, except for TO and NCF60, are placed in a water bath set at 37° C. and incubate for approximately 10 mins; • 2: Add 300 μL of termination solution (acetonitrile solution containing 200 ng/mL tolbutamide and 200 ng/mL labetalol) to Sample TO, followed by 10 ul of NADPH regeneration system working solution; • 3: After incubation of Blank60, T5, T10, T20, T30 and T60 on incubation plates, add 10 μL of NADPH regeneration system working solution to each sample well to start the reaction, and 10 uL of 100 mM potassium phosphate buffer is add to the NCF60 sample wells; • 4: After incubation for appropriate times (e.g., 5, 10, 20, 30 and 60 mins), 300 μL of termination solution is add to each sample well of test product and reference product on Blank60, T5, T10, T20, T30, T60 and NCF60 plates, respectively, to terminate the reaction. • 5: All sample plates are shaken well and centrifuged at 4000 rpm for 20 min, take 100 μL of the supernatant of the test product or reference product, dilute in 300 μL of pure water for LC-MS/MS analysis, respectively. • 6: Data analysis, T½ and CLint(mic) (μL/min/mg) values are calculated based on the first-order elimination kinetics, and the equations of first-order elimination kinetics are: […]

[4] = Liver microsomal stability test, human; type: in vitro ADME; conditions: Human liver microsomes; for CLint scaled / half-life: 0.5 mg/mL protein, 37° C., NADPH
Protocol: as §11

[5] = Pharmacokinetic test in SD rats, single oral administration; type: in vivo; conditions: 10 mg/kg, single oral administration 10 mg/kg, test compound mixed with F901318, plasma; for Cmax: read-out: Cmax; for Tmax: read-out: Tmax; for half-life: read-out: T½ (converted)
Protocol: Pharmacokinetic study is performed on SD rats receiving single oral administration of each test compound mixed with F901318 (10 mg/kg, 3 rats per group). Test compounds and F901318 are dissolved with […]+10% solutol+85% saline, vortexed for 1-2 mins and ultra-sonicated for 5-10 mins to form a colorless clear drug solution. The animals are fasted overnight before oral administration, and resumed feeding 4 hours after administration. After oral administration, pharmacokinetic samples are collected from orbital blood of SD rats at 0.083 h, 0.25 h, 0.5 h, 1 h, 2 h, 4 h, 6 h, 8 h, and 24 h, and three whole blood samples are collected at each time point in a volume of 0.2-0.3 mL. Blood samples are placed on ice immediately after collected, and the plasma is separated by centrifugation within 15 min (centrifugation conditions: 8000 rpm, 1 min, and at room temperature).
The collected plasma is stored at −20° C. prior to analysis. Transfer 20 μL of plasma sample into an 0.5 mL EP tube, add 200 μL of working internal standard solution (blank group is without internal standard, using the same volume of solvent instead), vortex and mix for 3 min centrifuge at 13500 rpm for 10 min, take 100 μL of supernatant and analyze with LC-MS/MS.

[6] = test system: Aspergillus flavus (ATCC 204304); assay: Measurement of minimum inhibitory concentration (MIC), ATCC 204304; type: cell-based; conditions: ATCC204304; Aspergillus flavus ATCC 204304, 35° C., 48 hours
Protocol: as §1, §2, §3, §4, §5, §6, §7, §8, §9, §10

[7] = SD, rat, plasma, po, read-out: AUC

Cc1cc(-c2ccccc2)c(C(=O)C(=O)Nc2cc(F)c3c(c2)OC[C@H]2CN(c4ncc(F)cn4)CCN32)n1C [Example 5]
MIC [1]: 16 ng/mL (≈ 29.4 nM)
MIC [2]: 4 ng/mL (≈ 7.35 nM)
CLint scaled [3]: 115 mL/min/kg
half-life [3]: 21.8 min
Remaining, (T = 60 min) [3]: 15.7%
CLint scaled [4]: 48.8 mL/min/kg
half-life [4]: 25.6 min
Remaining, (T = 60 min) [4]: 20.4%
AUC [5, 7]: 16000 ng·h/mL
Cmax ([5]; SD, rat, plasma, po): 1930 ng/mL
Tmax ([5]; SD, rat, plasma, po): 60 min
half-life ([5]; SD, rat, plasma, po): 257 min
MIC [6]: 4 ng/mL (≈ 7.35 nM)

Cc1cc(-c2ccccc2)c(C(=O)C(=O)Nc2ccc3c(c2)C[C@H]2CN(c4ncc(F)cn4)CCN32)n1C [Example 33, (S)-2-(1,5-dimethyl-3-phenyl-1H-pyrrol-2-yl)-N-(2-(5-fluoropyrimidin-2-yl)-1,2,3,4,10,10a-hexahydropyrazino[1,2-a]indol-8-yl)-2-oxoacetamide]
MIC [1]: 4 ng/mL (≈ 7.83 nM)
MIC [2]: 8 ng/mL (≈ 15.7 nM)
CLint scaled [3]: 50.2 mL/min/kg
half-life [3]: 49.6 min
Remaining, (T = 60 min) [3]: 44.8%
CLint scaled [4]: 25.9 mL/min/kg
half-life [4]: 48.2 min
Remaining, (T = 60 min) [4]: 43.4%
AUC [5, 7]: 36100 ng·h/mL
Cmax ([5]; SD, rat, plasma, po): 3490 ng/mL
Tmax ([5]; SD, rat, plasma, po): 60 min
half-life ([5]; SD, rat, plasma, po): 451 min
MIC [6]: 8 ng/mL (≈ 15.7 nM)

Cc1cc(-c2ccccc2)c(C(=O)C(=O)Nc2ccc(N3CCN(c4ncc(F)cn4)CC3)cc2)n1C [Example F901318, reference compound]
MIC [1]: 30 ng/mL (≈ 60.2 nM)
MIC [2]: 4 ng/mL (≈ 8.02 nM)
CLint scaled [3]: 98.9 mL/min/kg
half-life [3]: 25.2 min
Remaining, (T = 60 min) [3]: 18.7%
CLint scaled [4]: 37.8 mL/min/kg
half-life [4]: 33 min
Remaining, (T = 60 min) [4]: 27.7%
AUC [5, 7]: 7540 ng·h/mL
AUC [5]: 9170.038 ng·h/mL and 7652.703 ng·h/mL and 9641.325 ng·h/mL
MIC [6]: 4 ng/mL (≈ 8.02 nM)
